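Results reflect a 48-hour exposure of cells in 96-well plates to compound at five concentrations. GI50: concentration for 50% inhibition of growth. The concentration for full growth arrest is given as TGI.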
Columns and labels:
Experiment in all cases: growth of human tumour cells (NCI), 48 h
OVCAR-3 ovarian = tested on: OVCAR-3 ovarian
HL-60(TB) leukemia = tested on: HL-60(TB) leukemia
M14 melanoma = tested on: M14 melanoma
RXF 393 renal = tested on: RXF 393 renal
786-0 renal = tested on: 786-0 renal
NCI-H23 lung = tested on: NCI-H23 lung
NCI-H226 lung = tested on: NCI-H226 lung
UACC-62 melanoma = tested on: UACC-62 melanoma
UACC-257 melanoma = tested on: UACC-257 melanoma
OVCAR-4 ovarian = tested on: OVCAR-4 ovarian
CAKI-1 renal = tested on: CAKI-1 renal
LOX IMVI melanoma = tested on: LOX IMVI melanoma
MDA-MB-231 breast = tested on: MDA-MB-231 breast
TK-10 renal = tested on: TK-10 renal
HS 578T breast = tested on: HS 578T breast
SK-MEL-5 melanoma = tested on: SK-MEL-5 melanoma
A498 renal = tested on: A498 renal
MALME-3M melanoma = tested on: MALME-3M melanoma
DU-145 prostate = tested on: DU-145 prostate
HT29 colon = tested on: HT29 colon
CCRF-CEM leukemia = tested on: CCRF-CEM leukemia
K-562 leukemia = tested on: K-562 leukemia
NCI-H460 lung = tested on: NCI-H460 lung
SN12C renal = tested on: SN12C renal
PC-3 prostate = tested on: PC-3 prostate
HOP-92 NSCLC = tested on: HOP-92 NSCLC
HOP-62 NSCLC = tested on: HOP-62 NSCLC
SF-539 CNS = tested on: SF-539 CNS
MOLT-4 leukemia = tested on: MOLT-4 leukemia
IGROV1 ovarian = tested on: IGROV1 ovarian
SF-268 CNS = tested on: SF-268 CNS
U251 CNS = tested on: U251 CNS
BT-549 breast = tested on: BT-549 breast
EKVX NSCLC = tested on: EKVX NSCLC
NCI/ADR-RES ovarian = tested on: NCI/ADR-RES ovarian
HCT-15 colon = tested on: HCT-15 colon
HCC-2998 colon = tested on: HCC-2998 colon
MDA-MB-435 = tested on: MDA-MB-435
SR leukemia = tested on: SR leukemia
ACHN renal = tested on: ACHN renal
UO-31 renal = tested on: UO-31 renal
SK-MEL-2 melanoma = tested on: SK-MEL-2 melanoma
OVCAR-8 ovarian = tested on: OVCAR-8 ovarian
SK-OV-3 ovarian = tested on: SK-OV-3 ovarian
COLO 205 colon = tested on: COLO 205 colon
RPMI-8226 leukemia = tested on: RPMI-8226 leukemia
NCI-H522 lung = tested on: NCI-H522 lung
SW-620 colon = tested on: SW-620 colon
T-47D breast = tested on: T-47D breast
KM12 colon = tested on: KM12 colon
SNB-19 CNS = tested on: SNB-19 CNS
OVCAR-5 ovarian = tested on: OVCAR-5 ovarian
A549 NSCLC = tested on: A549 NSCLC
HCT-116 colon = tested on: HCT-116 colon
MCF7 breast = tested on: MCF7 breast
SF-295 CNS = tested on: SF-295 CNS
SK-MEL-28 melanoma = tested on: SK-MEL-28 melanoma

In the case of `Cc1ccc(C2=Nc3c(N)nc(N)nc3NC(c3cccc(Nc4ccnc5cc(C(F)(F)F)ccc45)c3)C2)cc1` (centres undefined), the GI50 (OVCAR-3 ovarian) was 1.78 µM, the TGI (OVCAR-3 ovarian) was 3.53 µM and the GI50 (HL-60(TB) leukemia) was 2.38 µM. For the same compound, the TGI (HL-60(TB) leukemia) was 5.54 µM, the GI50 (M14 melanoma) was 1.72 µM and the TGI (M14 melanoma) was 3.43 µM. For the same compound, the GI50 (RXF 393 renal) was 1.41 µM, the TGI (RXF 393 renal) was 2.87 µM and the GI50 (786-0 renal) was 1.51 µM. It also gave a TGI (786-0 renal) of 2.9 µM, a GI50 (NCI-H23 lung) of 2.18 µM and a TGI (NCI-H23 lung) of 5.58 µM. The GI50 (NCI-H226 lung) was 4.88 µM, the TGI (NCI-H226 lung) was 22.3 µM and the GI50 (UACC-62 melanoma) was 1.7 µM. The TGI (UACC-62 melanoma) was 3.46 µM, the GI50 (UACC-257 melanoma) was 2.12 µM and the TGI (UACC-257 melanoma) was 4.42 µM. The GI50 (OVCAR-4 ovarian) was 3.02 µM, the TGI (OVCAR-4 ovarian) was 14 µM and the GI50 (CAKI-1 renal) was 2.29 µM. It also gave a TGI (CAKI-1 renal) of 8.71 µM, a GI50 (LOX IMVI melanoma) of 1.74 µM and a TGI (LOX IMVI melanoma) of 3.3 µM. The GI50 (MDA-MB-231 breast) was 1.67 µM, the TGI (MDA-MB-231 breast) was 3.26 µM and the GI50 (TK-10 renal) was 4.11 µM. For the same compound, the TGI (TK-10 renal) was 16.5 µM, the GI50 (HS 578T breast) was 1.66 µM and the TGI (HS 578T breast) was 4.46 µM. The GI50 (SK-MEL-5 melanoma) was 1.6 µM, the TGI (SK-MEL-5 melanoma) was 2.98 µM and the GI50 (A498 renal) was 2.15 µM. It also gave a TGI (A498 renal) of 8.02 µM, a GI50 (MALME-3M melanoma) of 1.86 µM and a TGI (MALME-3M melanoma) of 3.87 µM. The GI50 (DU-145 prostate) was 2.78 µM, the TGI (DU-145 prostate) was 6.52 µM and the GI50 (HT29 colon) was 2.46 µM. It also gave a TGI (HT29 colon) of 5.89 µM, a GI50 (CCRF-CEM leukemia) of 2.21 µM and a TGI (CCRF-CEM leukemia) of 5.73 µM. It also gave a GI50 (K-562 leukemia) of 1.37 µM, a TGI (K-562 leukemia) of 6.98 µM and a GI50 (NCI-H460 lung) of 1.87 µM. It also gave a TGI (NCI-H460 lung) of 3.68 µM, a GI50 (SN12C renal) of 2.03 µM and a TGI (SN12C renal) of 4.71 µM. For the same compound, the GI50 (PC-3 prostate) was 1.59 µM, the TGI (PC-3 prostate) was 4.38 µM and the GI50 (HOP-92 NSCLC) was 1.35 µM. For the same compound, the TGI (HOP-92 NSCLC) was 2.9 µM, the GI50 (HOP-62 NSCLC) was 2.66 µM and the TGI (HOP-62 NSCLC) was 9.4 µM. It also gave a GI50 (SF-539 CNS) of 1.77 µM, a TGI (SF-539 CNS) of 3.49 µM and a GI50 (MOLT-4 leukemia) of 2.43 µM. The TGI (MOLT-4 leukemia) was 6.43 µM, the GI50 (IGROV1 ovarian) was 1.89 µM and the TGI (IGROV1 ovarian) was 4.77 µM. It also gave a GI50 (SF-268 CNS) of 1.93 µM, a TGI (SF-268 CNS) of 4.19 µM and a GI50 (U251 CNS) of 1.82 µM. For the same compound, the TGI (U251 CNS) was 3.62 µM, the GI50 (BT-549 breast) was 1.66 µM and the TGI (BT-549 breast) was 3.36 µM. It also gave a GI50 (EKVX NSCLC) of 2.91 µM, a TGI (EKVX NSCLC) of 11.5 µM and a GI50 (NCI/ADR-RES ovarian) of 2.29 µM. The TGI (NCI/ADR-RES ovarian) was 6.15 µM, the GI50 (HCT-15 colon) was 1.76 µM and the TGI (HCT-15 colon) was 3.57 µM. For the same compound, the GI50 (HCC-2998 colon) was 1.77 µM, the TGI (HCC-2998 colon) was 3.33 µM and the GI50 (MDA-MB-435) was 1.2 µM. It also gave a TGI (MDA-MB-435) of 2.63 µM, a GI50 (SR leukemia) of 1.53 µM and a TGI (SR leukemia) of 5.44 µM. For the same compound, the GI50 (ACHN renal) was 2.8 µM, the TGI (ACHN renal) was 11.1 µM and the GI50 (UO-31 renal) was 1.51 µM. For the same compound, the TGI (UO-31 renal) was 3.03 µM, the GI50 (SK-MEL-2 melanoma) was 1.95 µM and the TGI (SK-MEL-2 melanoma) was 4.05 µM. The GI50 (OVCAR-8 ovarian) was 2.31 µM, the TGI (OVCAR-8 ovarian) was 5.6 µM and the GI50 (SK-OV-3 ovarian) was 3.56 µM. The TGI (SK-OV-3 ovarian) was 13.4 µM, the GI50 (COLO 205 colon) was 1.71 µM and the TGI (COLO 205 colon) was 3.68 µM. It also gave a GI50 (RPMI-8226 leukemia) of 1.9 µM, a TGI (RPMI-8226 leukemia) of 4.7 µM and a GI50 (NCI-H522 lung) of 1.56 µM. For the same compound, the TGI (NCI-H522 lung) was 3.49 µM, the GI50 (SW-620 colon) was 1.7 µM and the TGI (SW-620 colon) was 3.52 µM. For the same compound, the GI50 (T-47D breast) was 2.22 µM, the TGI (T-47D breast) was 8.73 µM and the GI50 (KM12 colon) was 1.71 µM. The TGI (KM12 colon) was 3.63 µM, the GI50 (SNB-19 CNS) was 2.27 µM and the TGI (SNB-19 CNS) was 7.08 µM. For the same compound, the GI50 (OVCAR-5 ovarian) was 3.69 µM, the TGI (OVCAR-5 ovarian) was 15.7 µM and the GI50 (A549 NSCLC) was 2.88 µM. It also gave a TGI (A549 NSCLC) of 10.7 µM, a GI50 (HCT-116 colon) of 1.61 µM and a TGI (HCT-116 colon) of 2.96 µM. The GI50 (MCF7 breast) was 1.84 µM, the TGI (MCF7 breast) was 4.99 µM and the GI50 (SF-295 CNS) was 1.56 µM. For the same compound, the TGI (SF-295 CNS) was 3.17 µM, the GI50 (SK-MEL-28 melanoma) was 1.7 µM and the TGI (SK-MEL-28 melanoma) was 3.33 µM.

From PubChem BioAssay (NCI)
